Reference: patent US20240391862A1, “(1,4,5-TRISUBSTITUTED-1H-PYRAZOL-3-YL)OXY-2-ALKOXY ALKYL ACIDS AND THEIR DERIVATIVES, THEIR SALTS AND THEIR USE AS HERBICIDAL AGENTS” (Bayer AKtiengesellschaft, priority 2021, published 2024)

Assays:
[1] = test system: DIGSA; assay: Post-emergence herbicidal effect, greenhouse pot test; type: in vivo, Digitaria sanguinalis; conditions: visual rating about 3 weeks after treatment
Method in brief: (§1)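 Greenhouse pot test: weeds and crops sown in sandy loam, sprayed post-emergence at one-leaf stage (2–3 weeks after sowing) with WP or EC formulations plus 0.5% additive at 600 l/ha water, rates 20–320 g/ha. Visual rating about 3 weeks later versus untreated controls (100% = dead, 0% = as control).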

[2] = test system: SETVI; assay: as above; type: in vivo, Setaria viridis
Method in brief: as §1

[3] = test system: MATIN; assay: as above; type: in vivo, Tripleurospermum inodorum
Method in brief: as §1

[4] = test system: KCHSC; assay: as above; type: in vivo; conditions: 320 g/ha; for pest or weed control at 320 g/ha: 504 h, read-out: Post-emergence effect against KCHSC in %
Method in brief: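 Greenhouse plants in sandy loam, sprayed post-emergence at the one-leaf stage (2–3 weeks after sowing) with WP or EC formulations in water plus 0.5% additive at 600 l/ha. Rates 20 to 320 g/ha. Activity rated visually after about 3 weeks against untreated controls (0% like control, 100% dead).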

[5] = test system: ECHCG; assay: as above; type: in vivo, Echinochloa crus-galli; conditions: for pest or weed control at 80 g/ha / pest or weed control at 320 g/ha: Echinochloa crus-galli, 504 h, read-out: Post-emergence effect against ECHCG in %
Method in brief: as §1

[6] = test system: ABUTH; assay: as above; type: in vivo, Abutilon theophrasti; conditions: visual rating about 3 weeks after treatment
Method in brief: as §1

[7] = test system: ALOMY; assay: as above; type: in vivo, Alopecurus myosuroides; conditions: 320 g/ha, visual rating about 3 weeks after treatment; for pest or weed control at 320 g/ha: Alopecurus myosuroides, 504 h, read-out: Post-emergence effect against ALOMY
Method in brief: as §1

[8] = test system: TRZAS; assay: Post-emergence herbicidal effect and crop plant compatibility, greenhouse pot test; type: in vivo, Triticum aestivum; conditions: Triticum aestivum, 504 h, 20 g/ha, one-leaf stage, rated visually after about 3 weeks vs untreated controls, read-out: Post-emergence effect at 20 g/ha against TRZAS in %
Source text: • ALOMY: Alopecurus myosuroides SETVI: Setaria viridis • AVEFA: Avena fatua POLCO: Fallopia convolvulus • AMARE: Amaranthus retroflexus ECHCG: Echinochloa crus-galli • LOLRJ: Lolium rigidum STEME: Stellaria media • VERPE: Veronica persica MATIN: Tripleurospermum inodorum • DIGSA: Digitaria sanguinalis ABUTH: Abutylon threophrasti • TRZAS: Triticum aestivum VIOTR: Viola tricolor • BRSNW: Brassica napus ZEAMX: Zea mays • PHBPU: Ipomoea purpurea GLXMA: Glycine max • ORYSA: Oryza sativa HORMU: Hordeum murinum
Seeds of monocotyledonous and dicotyledonous weeds and crop plants are placed in sandy loam in plastic or organic planting pots, covered with soil and cultivated in a greenhouse under controlled growth conditions. 2 to 3 weeks after sowing, the trial plants are treated at the one-leaf stage. The compounds of the invention, formulated in the form of wettable powders (WP) or as emulsion concentrates (EC), are then sprayed onto the green parts of the plants as aqueous suspension or emulsion with addition of 0.5% additive at a water application rate of 600 l/ha (converted). After the test plants have been kept in the greenhouse under optimum growth conditions for about 3 weeks, the activity of the preparations is rated visually in comparison to untreated controls. For example, 100% activity=the plants have died, 0% activity=like control plants.
Tables 20a to 38c below show the effects/crop compatibilities of selected compounds of the general formula (I) on various harmful plants at an application rate corresponding to 20 to 320 g/ha, which were obtained by the trial procedure specified above.

[9] = test system: PHBPU; assay: Post-emergence herbicidal effect, greenhouse pot test; type: in vivo, Ipomoea purpurea
Method in brief: as §1

[10] = test system: VERPE; assay: as above; type: in vivo, Veronica persica
Method in brief: as §1

[11] = test system: AVEFA; assay: as above; type: in vivo, Avena fatua; conditions: 320 g/ha, visual rating about 3 weeks after treatment; for pest or weed control at 320 g/ha: Avena fatua, 504 h, read-out: Post-emergence effect against AVEFA
Method in brief: as §1

[12] = test system: ZEAMX; assay: Post-emergence herbicidal effect and crop plant compatibility, greenhouse pot test; type: in vivo, Zea mays; conditions: one-leaf stage, rated visually after about 3 weeks vs untreated controls; for plant injury at 20 g/ha: read-out: Post-emergence effect at 20 g/ha against ZEAMX in %; for plant injury at 80 g/ha: read-out: Post-emergence effect at 80 g/ha against ZEAMX in %
Method in brief: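 Sandy loam pots, greenhouse. One-leaf stage (2–3 wk after sowing) foliar spray; WP/EC in water + 0.5% additive, 600 l/ha; 20–320 g/ha. Visual score ~3 wk, 0–100% vs untreated.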

[13] = test system: POLCO; assay: Post-emergence herbicidal effect, greenhouse pot test; type: in vivo, Fallopia convolvulus; conditions: Fallopia convolvulus, 504 h, read-out: Post-emergence effect against POLCO in %
Method in brief: as §1

[14] = test system: AMARE; assay: as above; type: in vivo, Amaranthus retroflexus; conditions: Amaranthus retroflexus, 504 h, visual rating about 3 weeks after treatment, read-out: Post-emergence effect against AMARE
Method in brief: as §1

[15] = test system: VIOTR; assay: as above; type: in vivo, Viola tricolor; conditions: Viola tricolor, 504 h, read-out: Post-emergence effect against VIOTR in %
Method in brief: as §1

[16] = Digitaria sanguinalis, 504 h, 320 g/ha, read-out: Post-emergence effect against DIGSA
[17] = Setaria viridis, 504 h, 320 g/ha, read-out: Post-emergence effect against SETVI in %
[18] = Tripleurospermum inodorum, 504 h, 320 g/ha, read-out: Post-emergence effect against MATIN in %
[19] = Abutilon theophrasti, 504 h, 320 g/ha, read-out: Post-emergence effect against ABUTH
[20] = Ipomoea purpurea, 504 h, 320 g/ha, read-out: Post-emergence effect against PHBPU in %
[21] = Veronica persica, 504 h, 320 g/ha, read-out: Post-emergence effect against VERPE in %

Row | SMILES | percent crop injury (phytotoxicity) to wheat, post-emergence at 20 g/ha [8] [%] | plant injury at 20 g/ha ([12]; Zea mays, 504 h) [%] | pest or weed control at 320 g/ha [13] [%] | pest or weed control at 320 g/ha [1, 16] [%] | pest or weed control at 320 g/ha [2, 17] [%] | pest or weed control at 320 g/ha [3, 18] [%] | pest or weed control at 320 g/ha [14] [%] | pest or weed control at 80 g/ha ([5]; 80 g/ha) [%] | pest or weed control at 320 g/ha ([5]; 320 g/ha) [%] | pest or weed control at 320 g/ha [6, 19] [%] | pest or weed control at 320 g/ha [7] [%] | pest or weed control at 320 g/ha [9, 20] [%] | pest or weed control at 320 g/ha [10, 21] [%] | pest or weed control at 320 g/ha [11] [%] | pest or weed control at 320 g/ha [15] [%] | plant injury at 80 g/ha ([12]; Zea mays, 504 h) [%] | pest or weed control at 320 g/ha [4] [%] | further results
1 | CCOC(Oc1nn(-c2ccccc2F)c(-c2ccc(F)nc2)c1Br)C(=O)OCCC(=O)OC (single isomer, unassigned) [Example I-64, Methyl 3-{[(2R*)-2-{[4-bromo-1-(2-fluorophenyl)-5-(6-fluoropyridin-3-yl)-1H-pyrazol-3-yl]oxy}-2-ethoxyethanoyl]oxy}propanoate] | 10 | 20 | – | – | – | – | – | – | – | – | – | – | – | – | – | – | – | Post-emergence effect against DIGSA ([1]; 320 g/ha): 80%; Post-emergence effect against SETVI in % ([2]; 320 g/ha): 90%; Post-emergence effect against MATIN in % ([3]; 320 g/ha): 80%; Post-emergence effect against KCHSC in % [4]: 90%; Post-emergence effect against ECHCG in % ([5]; 80 g/ha): 80%; Post-emergence effect against ECHCG in % ([5]; 320 g/ha): 90%; Post-emergence effect against ABUTH ([6]; 320 g/ha): 80%; Post-emergence effect against ALOMY [7]: 90%; Post-emergence effect against PHBPU in % ([9]; 80 g/ha): 80%; Post-emergence effect against PHBPU in % ([9]; 320 g/ha): 90%; Post-emergence effect against VERPE in % ([10]; 80 g/ha): 80%; Post-emergence effect against VERPE in % ([10]; 320 g/ha): 80%; Post-emergence effect against AVEFA [11]: 90%
2 | COC(=O)C(OC)Oc1nn(-c2cccc(Cl)c2F)c(-c2cncc(F)c2)c1Cl (centres unmarked) [Example I-16, Methyl {[4-chloro-1-(3-chloro-2-fluorophenyl)-5-(5-fluoropyridin-3-yl)-1H-pyrazol-3-yl]oxy}(methoxy)acetate] | 10 | – | 80 | 90 | 80 | 90 | 80 | 90 | 90 | 90 | 90 | 90 | 80 | 90 | 90 | – | – | pest or weed control at 80 g/ha ([1]; Digitaria sanguinalis, 504 h, 80 g/ha, read-out: Post-emergence effect against DIGSA): 80%; pest or weed control at 80 g/ha ([2]; Setaria viridis, 504 h, 80 g/ha, read-out: Post-emergence effect against SETVI in %): 80%; pest or weed control at 80 g/ha ([3]; Tripleurospermum inodorum, 504 h, 80 g/ha, read-out: Post-emergence effect against MATIN in %): 80%; pest or weed control at 80 g/ha ([14]; 80 g/ha): 80%; pest or weed control at 80 g/ha ([6]; Abutilon theophrasti, 504 h, 80 g/ha, read-out: Post-emergence effect against ABUTH): 90%; pest or weed control at 20 g/ha ([9]; Ipomoea purpurea, 504 h, 20 g/ha, read-out: Post-emergence effect against PHBPU in %): 80%; pest or weed control at 80 g/ha ([9]; Ipomoea purpurea, 504 h, 80 g/ha, read-out: Post-emergence effect against PHBPU in %): 90%; pest or weed control at 20 g/ha ([15]; 20 g/ha): 80%; pest or weed control at 80 g/ha ([15]; 80 g/ha): 80%
3 | CCOC(=O)C(OC)Oc1nn(-c2ccccc2F)c(-c2ccc(F)nc2)c1Br (centres unmarked) [Example I-22] | 20 | 20 | – | 80 | 90 | 90 | 90 | – | 90 | – | 90 | 90 | 90 | 80 | 80 | 20 | – | pest or weed control at 80 g/ha ([10]; Veronica persica, 504 h, 80 g/ha, read-out: Post-emergence effect against VERPE in %): 90%
4 | COC(Oc1nn(-c2ncccc2F)c(-c2ccc(F)nc2)c1C1CC1)C(=O)O (centres unmarked) [Example I-56] | 0 | 0 | 80 | 80 | 80 | – | – | 80 | 90 | 80 | – | 80 | 80 | 80 | 90 | 0 | 90 | Post-emergence effect at 320 g/ha against ZEAMX in % ([12]; 320 g/ha): 20%
5 | COC(Oc1nn(-c2ncccc2F)c(-c2ccc(F)nc2)c1C(F)(F)F)C(=O)O (centres unmarked) [Example I-57] | 0 | 0 | 80 | – | – | – | – | – | 90 | – | – | 80 | – | 80 | 80 | 0 | 90 | plant injury at 320 g/ha ([12]; Zea mays, 504 h, 320 g/ha, read-out: Post-emergence effect at 320 g/ha against ZEAMX in %): 0%
6 | COC(Oc1nn(-c2ccccc2F)c(-c2ccc(F)nc2)c1C1CC1)C(=O)O (centres unmarked) [Example I-69] | 0 | 0 | 80 | – | – | 80 | – | – | 90 | 90 | – | 80 | 80 | – | 90 | 0 | 80 | pest or weed control at 80 g/ha ([13]; 80 g/ha): 80%
